# From patent US10231453B2, “5-substituted imidazole derivatives” (BAYER CROPSCIENCE AKTIENGESELLSCHAFT, priority 2015, dated 2019)
# Where two headings read alike, the source gives them in different places.
# Tests used:
# Alternaria brassicae = test: In vivo preventive test on Alternaria brassicae (leaf spot on radish), Examples A and R1; conditions: Alternaria brassicae, 144 h; for pest or weed control at 100 ppm: Example R1, rate of application 100 ppm
# Phakopsora pachyrhizi = test: In vivo preventive Phakopsora test (soybeans), Example I; conditions: 168 h, 100 ppm of active ingredient, preventive spray, evaluated 7 days after inoculation, read-out: efficacy
# Fusarium graminearum = test: whole plant or invertebrate; assay type: in vivo; conditions: in Hordeum vulgare, 120 h, read-out: efficacy
# Septoria tritici = test: In vivo preventive test on Septoria tritici (leaf spot on wheat), Examples E, Q3 and R5; conditions: Zymoseptoria tritici, 576 h, preventive spray, evaluated 24 days after inoculation
# [1] = Measurement of LogP values by HPLC on reversed phase columns (EEC directive 79/831 Annex V.A8); assay type: physicochemical; conditions: method [a]: LC-UV, acidic range, 0.1% formic acid in water and acetonitrile as eluent; Table 1
# Method: Measurement of Log P values was performed as outlined above.
# Puccinia recondita = test: In vivo preventive test on Puccinia recondita (brown rust on wheat), Examples C and R3; conditions: Puccinia recondita, 264 h, preventive spray, evaluated 11 days after inoculation
# Alternaria solani = test: In vivo preventive Alternaria test (tomatoes), Example H; conditions: 72 h, 100 ppm of active ingredient, preventive spray, evaluated 3 days after inoculation, read-out: efficacy
# Pyricularia oryzae = test: whole plant or invertebrate; assay type: in vivo; conditions: 192 h, read-out: efficacy
# Sphaerotheca fuliginea = test: In vivo preventive test on Sphaerotheca fuliginea (powdery mildew on cucurbits), Examples F and R6; conditions: Podosphaera fuliginea, 360 h, preventive spray, evaluated 15 days after inoculation
# [2] = test system: Blumeria graminis fsp. hordei; test: In vivo preventive Blumeria test (barley), Example K; conditions: 168 h, 500 ppm of active ingredient, preventive spray, evaluated 7 days after inoculation, read-out: efficacy
# Excerpt: After the spray coating has been dried, the plants are dusted with spores of Blumeria graminis fsp. hordei.
# Botrytis cinerea = test: In vivo preventive test on Botrytis cinerea (grey mould) on gherkin, Examples B, Q1 and R2; conditions: Botrytis cinerea; for pest or weed control at 100 ppm: Example R2, rate of application 100 ppm
# [3] = test system: Fusarium nivale (var. majus); test: In vivo preventive Fusarium nivale (var. majus) test (wheat), Example O; conditions: Microdochium nivale, 120 h, 500 ppm of active ingredient, preventive spray, evaluated 5 days after inoculation, read-out: efficacy
# Excerpt: After the spray coating has been dried, the plants are slightly injured by using a sandblast and afterwards they are sprayed with a conidia suspension of Fusarium nivale (var. majus).
# Leptosphaeria nodorum = test: In vivo preventive Leptosphaeria nodorum test (wheat), Example N; conditions: Parastagonospora nodorum, 192 h, 500 ppm of active ingredient, preventive spray, evaluated 8 days after inoculation, read-out: efficacy
# Excerpt: After the spray coating has been dried, the plants are sprayed with a spore suspension of Leptosphaeria nodorum.
# Venturia inaequalis = test: In vivo preventive Venturia test (apples), Example J; conditions: 240 h, read-out: efficacy
# Method: After the spray coating has dried on, the plants are inoculated with an aqueous conidia suspension of the causal agent of apple scab (Venturia inaequalis) and then remain for 1 day in an incubation cabinet at approximately 20° C. and a relative atmospheric humidity of 100%.
# The plants are then placed in a greenhouse at approximately 21° C. and a relative atmospheric humidity of approximately 90%.
# The test is evaluated 10 days after the inoculation.
# Uromyces appendiculatus = test: In vivo preventive test on Uromyces appendiculatus (bean rust), Examples G and R7; conditions: 264 h, preventive spray, evaluated 11 days after inoculation
# Pyrenophora teres = test: In vivo preventive test on Pyrenophora teres (net blotch on barley), Examples D, Q2 and R4; conditions: Pyrenophora teres, 336 h; for pest or weed control at 100 ppm: Example R4, rate of application 100 ppm
# Fusarium culmorum = test: In vivo preventive Fusarium culmorum test (wheat), Example L; conditions: 120 h, 500 ppm of active ingredient, preventive spray, evaluated 5 days after inoculation, read-out: efficacy
# Method: After the spray coating has been dried, the plants are slightly injured by using a sandblast and afterwards they are sprayed with a conidia suspension of Fusarium culmorum.
# The test is evaluated 5 days after the inoculation.
# [4] = 500 ppm of active ingredient, preventive spray, evaluated 6 days after inoculation, read-out: efficacy
# [5] = Example R1, rate of application 500 ppm, read-out: Efficacy in %
# [6] = 500 ppm of active ingredient, wheat, read-out: efficacy
# [7] = Example R5, wheat, read-out: Efficacy in %
# [8] = Example R5, wheat, 500 ppm, read-out: Efficacy in %
# [9] = Example R3, wheat, read-out: Efficacy in %
# [10] = Example R3, wheat, 500 ppm, read-out: Efficacy in %
# [11] = 500 ppm of active ingredient, gherkin, read-out: efficacy
# [12] = Example R6, gherkin, read-out: Efficacy in %
# [13] = Example R6, gherkin, 500 ppm, read-out: Efficacy in %
# [14] = 500 ppm of active ingredient, preventive spray, evaluated 4 to 5 days after inoculation, read-out: efficacy
# [15] = Example R2, rate of application 500 ppm, read-out: Efficacy in %
# [16] = 500 ppm of active ingredient, bean, read-out: efficacy
# [17] = Example R7, bean, read-out: Efficacy in %
# [18] = Example R7, bean, 500 ppm, read-out: Efficacy in %
# [19] = 500 ppm of active ingredient, preventive spray, evaluated 14 days after inoculation, read-out: efficacy
# [20] = Example R4, rate of application 500 ppm, read-out: Efficacy in %
Structure (SMILES),pest or weed control at 500 ppm (Alternaria brassicae; [4]),pest or weed control at 100 ppm (Phakopsora pachyrhizi),pest or weed control at 500 ppm (Fusarium graminearum),pest or weed control at 500 ppm (Septoria tritici; [6]),chromatographic logP [1],pest or weed control at 500 ppm (Puccinia recondita; [6]),pest or weed control at 100 ppm (Alternaria solani),pest or weed control at 500 ppm (Pyricularia oryzae),pest or weed control at 500 ppm (Sphaerotheca fuliginea; [11]),pest or weed control at 500 ppm [2],pest or weed control at 500 ppm (Botrytis cinerea; [14]),pest or weed control at 500 ppm [3],pest or weed control at 500 ppm (Leptosphaeria nodorum),pest or weed control at 100 ppm (Venturia inaequalis),pest or weed control at 500 ppm (Uromyces appendiculatus; [16]),pest or weed control at 500 ppm (Pyrenophora teres; [19]),also measured
OC(Cc1ccccc1Cl)(Cn1cncc1Br)C1(Cl)CC1 (stereo not shown) [Example I-04],70 to 79%,90 to 100%,70 to 79%,90 to 100%,2.27,90 to 100%,90 to 100%,90 to 100%,90 to 100%,90 to 100%,90 to 100%,90 to 100%,90 to 100%,90 to 100%,90 to 100%,90 to 100%,pest or weed control at 100 ppm (Alternaria brassicae; read-out: Efficacy in %): 20%; pest or weed control at 500 ppm (Alternaria brassicae; [5]): 70%; pest or weed control at 100 ppm (Septoria tritici; [7]): 97%; pest or weed control at 500 ppm (Septoria tritici; [8]): 100%; pest or weed control at 100 ppm (Puccinia recondita; [9]): 88%; pest or weed control at 500 ppm (Puccinia recondita; [10]): 94%; pest or weed control at 100 ppm (Sphaerotheca fuliginea; [12]): 100%; pest or weed control at 500 ppm (Sphaerotheca fuliginea; [13]): 100%; pest or weed control at 100 ppm (Botrytis cinerea; read-out: Efficacy in %): 90%; pest or weed control at 500 ppm (Botrytis cinerea; [15]): 100%; pest or weed control at 100 ppm (Uromyces appendiculatus; [17]): 100%; pest or weed control at 500 ppm (Uromyces appendiculatus; [18]): 100%; pest or weed control at 100 ppm (Pyrenophora teres; read-out: Efficacy in %): 71%; pest or weed control at 500 ppm (Pyrenophora teres; [20]): 93%
OC(Cc1ccc(F)cc1Cl)(Cn1cncc1Cl)C1(Cl)CC1 (stereo not shown) [Example I-08],–,90 to 100%,70 to 79%,90 to 100%,2.47,90 to 100%,90 to 100%,70 to 79%,90 to 100%,90 to 100%,90 to 100%,90 to 100%,90 to 100%,90 to 100%,90 to 100%,80 to 89%,–
OC(Cc1ccccc1F)(Cn1cncc1Cl)C1(Cl)CC1 (stereo not shown) [Example I-32],90 to 100%,90 to 100%,70 to 79%,90 to 100%,2.07,90 to 100%,90 to 100%,–,90 to 100%,90 to 100%,90 to 100%,80 to 89%,80 to 89%,90 to 100%,90 to 100%,80 to 89%,pest or weed control at 100 ppm (Alternaria brassicae; read-out: Efficacy in %): 50%; pest or weed control at 500 ppm (Alternaria brassicae; [5]): 92%; pest or weed control at 100 ppm (Septoria tritici; [7]): 71%; pest or weed control at 500 ppm (Septoria tritici; [8]): 100%; pest or weed control at 100 ppm (Puccinia recondita; [9]): 78%; pest or weed control at 500 ppm (Puccinia recondita; [10]): 94%; pest or weed control at 100 ppm (Sphaerotheca fuliginea; [12]): 100%; pest or weed control at 500 ppm (Sphaerotheca fuliginea; [13]): 100%; pest or weed control at 100 ppm (Botrytis cinerea; read-out: Efficacy in %): 99%; pest or weed control at 500 ppm (Botrytis cinerea; [15]): 100%; pest or weed control at 100 ppm (Uromyces appendiculatus; [17]): 81%; pest or weed control at 500 ppm (Uromyces appendiculatus; [18]): 100%; pest or weed control at 100 ppm (Pyrenophora teres; read-out: Efficacy in %): 78%; pest or weed control at 500 ppm (Pyrenophora teres; [20]): 89%
N#Cc1cncn1CC(O)(Cc1ccc(Br)cc1F)C1(Cl)CC1 (stereo not shown) [Example I-42],–,90 to 100%,80 to 89%,90 to 100%,3.24,90 to 100%,70 to 79%,80 to 89%,90 to 100%,90 to 100%,80 to 89%,80 to 89%,90 to 100%,80 to 89%,90 to 100%,70 to 79%,–
N#Cc1cncn1CC(O)(Cc1ccc(F)cc1F)C1(F)CC1 (stereo not shown) [Example I-97],–,90 to 100%,90 to 100%,90 to 100%,2.39,90 to 100%,80 to 89%,70 to 79%,90 to 100%,90 to 100%,–,90 to 100%,–,80 to 89%,90 to 100%,80 to 89%,pest or weed control at 500 ppm (Fusarium culmorum): 90 to 100%
N#Cc1cncn1CC(O)(Cc1ccccc1F)C1(F)CC1 (stereo not shown) [Example I-99],80 to 89%,90 to 100%,90 to 100%,90 to 100%,2.01,90 to 100%,90 to 100%,80 to 89%,90 to 100%,90 to 100%,90 to 100%,90 to 100%,90 to 100%,80 to 89%,90 to 100%,90 to 100%,–
N#Cc1cncn1CC(O)(Cc1ccc(F)cc1F)C1(Cl)CC1 (stereo not shown) [Example I-125],–,90 to 100%,90 to 100%,90 to 100%,2.78,90 to 100%,90 to 100%,80 to 89%,90 to 100%,90 to 100%,80 to 89%,90 to 100%,80 to 89%,90 to 100%,90 to 100%,–,–
N#Cc1cncn1CC(O)(Cc1cccc(F)c1F)C1(Cl)CC1 (stereo not shown) [Example I-146],–,90 to 100%,90 to 100%,90 to 100%,2.75,90 to 100%,90 to 100%,70 to 79%,90 to 100%,90 to 100%,90 to 100%,90 to 100%,90 to 100%,90 to 100%,90 to 100%,90 to 100%,–
OC(Cc1cccc(F)c1F)(Cn1cncc1Cl)C1(Cl)CC1 (stereo not shown) [Example I-147],–,90 to 100%,90 to 100%,90 to 100%,2.17,90 to 100%,90 to 100%,80 to 89%,90 to 100%,90 to 100%,90 to 100%,90 to 100%,90 to 100%,90 to 100%,90 to 100%,90 to 100%,–
